Test results reported in US20220110985A1, “NUTRITIONAL COMPOSITION COMPRISING 2'FUCOSYLLACTOSE AND 3'GALACTOSYLLACTOSE” (N.V. Nutricia, priority 2019, published 2022).

What was measured:
Caco-2 cell monolayer = assay: DON-induced impairment of Caco-2 cell monolayer integrity (TEER, lucifer yellow flux); format: cell-based, human; conditions: for effect on DON-induced loss of epithelial barrier integrity (TEER, LY flux), in words: 24 h pretreatment (GLs 0.75 wt. %; 2′-FL 1 mg/ml), then DON 4.2 μM 24 h
Experimental: Beta1,3′-galactosyl-lactose (beta3′-GL), beta1,4′-galactosyllactose (beta4′-GL) and beta1,6′-galactosyl-lactose (beta6′-GL) were obtained from Carbosynth (Berkshire, UK). Alpha1,3′-galactosyl-lactose (alpha3′-GL) was obtained from Elicityl (Crolles, France). Purified deoxydivalenol (DON) (D0156; Sigma Aldrich, St Luis, Mo., USA) was dissolved in pure ethanol and stored at −20° C. Human epithelial colorectal adenocarcinoma (Caco-2) cells were obtained from American […] (Code HTB-37) (Manasse, Va., USA, passage 90-102).
Caco-2 cells were used according to established methods. In brief: cells were cultured in Dulbecco's modified Eagle medium (DMEM) and seeded at a density of 0.3×10^5 cells into 0.3 cm^2 high pore density (0.4 μm) inserts with a polyethylene terephthalate membrane (BD Biosciences, Franklin Lakes, N.J., USA) placed in a 24-well plate. The Caco-2 cells were maintained in a humidified atmosphere of 95 air and 5% CO2 at 37° C.
Caco-2 cell monolayers were thus grown in a transwell system, which is a model for intestinal barrier function. The monolayers were pretreated for 24 h with different GLs, including beta3′-GL, alpha3′-GL, beta4′-GL and beta6′-GL in a concentration of 0.75 wt. % of the GL, before being exposed to the fungal toxin deoxynivalenol (DON), which is a trigger and model compound to impair intestinal barrier. DON was diluted to a final concentration of 4.2 μM in complete cell medium and added to the apical side as well as to the basolateral side of the transwell inserts. […] Incubation with DON was 24 h.
Measurements of the transepithelial electrical resistance (TEER) and lucifer yellow (LY) permeability were conducted to investigate barrier integrity. For TEER measurements a Millicel-ERS voltohmmeter connected to a pair of chopsticks electrodes was used to measure the TEER values. Results are expressed as a percentage of the initial value. For paracellular tracer flux assay the membrane impermeable lucifer yellow (LY) (Sigma, St Luis, Mo., USA) was added in a concentration of 16 μg/ml to the apical compartment in the transwell plate for 4 h, and the paracellular flux was determined by measuring the fluorescence intensity in the basolateral compartment with a spectrophotofluorimeter (FLUOstar Optima, BMG Labtech, Offenburg, Germany) set at excitation and emission wavelengths of 410 and 520 nm, respectively. Release of interleukin-8 (IL-8 or CXCL8), which is a typical marker for inflammation, was quantified in the medium of the apical side and the basolateral side of the Caco-2 transwell inserts in response to the treatments. CXCL8 concentrations were measured by using the human IL-8 ELISA assay (BD Biosciences, Pharmingem, San Diego, Calif., USA) according to manufacturer's instructions. For more details on materials and methods see Akbari et al, 2016, Eur J Nutr. 56(5):1919-1930.

fecal slurry microbiota = assay: Anaerobic fermentation of fecal slurry (BioLector Pro): acidification, microbiota composition; format: cell-based, human infant; conditions: no pathogen spiking
Experimental: Anaerobic fermentation of fecal slurry samples was tested in a BioLector Pro microfluidics mini multifermentor. Faecal slurry samples were collected from breast fed infants and from formula fed infants. These faecal slurry samples were processed by adding 0.6 grams feces in 40 ml Baby Reichardt V.6 medium+mucus+Ammonium sulfate+lactate and acetate. The resulting solutions were inserted to the BioLector Pro microfluidics mini multifermentor. The test legs were supplemented with 3-GL, 2′-FL, 3′-GL+2′-FL, and GOS/FOS. The control leg was supplemented with sterile water.
In addition the test legs were supplemented with Clostridium difficile C153 (difficile agar), Salmonella enteriditis S29 (XLD agar), Cronobacter sakasakii E71 (chromogenic agar) or Klebsiella pneumonia K2 (Simons citrate inositol agar). For every NDO and for the control also a pathogen free culture was prepared.
After fermentation the fermented solutions were tested for SCFA content (in particular acetic acid, propionic acid, butyric acid and isobutyric acid), ammonia content, lactate content and pathogen concentration. Also DNA-isolation+identification and 16s sequencing was performed to determine the composition of the microbiota.
A 32 well plate that can handle low pH was used. The wells of this plate were filled with fecal solution. […]

human PBMC, unstimulated = assay: Cytokine production of unstimulated PBMC (IL10, CCL20); format: cell-based; conditions: for CCL20 level as compared to blanc control, in words: unstimulated PBMC; for Relative CCL 20 mean (s.e.): 0.1 w/v % 3′-GL
Source text: Isolation of PBMC from healthy donors: Human peripheral blood mononuclear cells (PBMC) from healthy donors were isolated from buffy coats (Sanquin, Amsterdam, the Netherlands). PBMC were obtained by centrifugation using Leucosep tubes (Greiner Bio-One). […] After lysis, the PBMC were resuspended in freezing medium (70% RPMI 1640 medium (Gibco, Thermo Fisher Technologies) supplemented with 10% heat-inactivated FCS and 100 U/ml penicillin-streptomycin, 20% heat-inactivated FCS and 10% DMSO (Sigma)) and cryopreserved. PBMC activation model: PBMC (0.2·10^6 cell/well) were cultured in 96-well flat bottom plates (Corning). For 24 hours the cells were pre-incubated with 2'-FL (Jennewein), 3'-GL (0-0.3% w/v; […] Sigma Aldrich) and combinations thereof. Subsequently, the cells were CD3/CD28-activated (Pelicluster CD3 and Pelicluster CD28, Sanquin) for an additional 24 hours. After incubation, IFNγ was measured by ELISA in the supernatants (see below). […] Roche) and/or 10% Triton (5 μl; negative control). […] Cytokine production of PBMC: PBMC were incubated with indicated reagents. After incubation, the supernatants were collected and IL2, IL6, IL10, IL13, IL21, TNFα, IFNγ, MIF, CCL1, CCL13, CCL17, CCL20, CCL22 and CXCL8-11 levels were measured by conducting a validated multiplex immunoassay based on Luminex technology (xMAP, Luminex Austin Tex. USA). Acquisition was conducted with the Biorad […] (Biorad laboratories, Hercules USA) in combination with xPONENT software version 4.2 (Luminex). Data was analyzed by 5-parametric curve fitting using Bio-Plex Manager software, version 6.1.1 (Biorad). After PBMC stimulation, cell culture supernatants were collected, after which cytokine responses were measured in order to test immune responsiveness of the cells. The levels of cytokines measured in stimulated conditions were corrected for the (low) levels of the cytokines measured in non-stimulated conditions. In addition, since each donor is reacting in its own efficiency onto the T cell stimulus, we calculated the individual index of cytokine response by dividing the intervention induced response by the basal stimulated response.

[1] = Caco-2 monolayer, DON 4.2 μM, 2′-FL 1 mg/ml
[2] = unstimulated, 0.2% w/v 2′-FL, 0.2 mM butyrate, blanc = 1, observed

Molecule	effect on DON-induced loss of epithelial barrier integrity (TEER, LY flux), in words (Caco-2 cell monolayer)	Lucifer yellow flux (Caco-2 cell monolayer; [1])	TEER (% of initial value) Mean (s.e.) (Caco-2 cell monolayer; [1])	extent of fermentation as measured by NaOH consumption, i.e. acid production (fecal slurry microbiota; both inocula)	IL10 level as compared to blanc control, in words (human PBMC, unstimulated; 0.2% 2′-FL, 0.2 mM butyrate)	CCL20 level as compared to blanc control, in words (human PBMC, unstimulated)	Relative IL10 level, mean (se) (human PBMC, unstimulated; [2])	Relative CCL 20 mean (s.e.) (human PBMC, unstimulated; [2])	rate of initial acidification (fecal slurry microbiota)
C[C@@H]1O[C@@H](O[C@H]2[C@H](O[C@H]3[C@H](O)[C@@H](O)C(O)O[C@@H]3CO)O[C@H](CO)[C@H](O)[C@@H]2O)[C@@H](O)[C@H](O)[C@@H]1O (stereo partly drawn) [2′-FL, α-L-Fuc-(1→2)-β-D-Gal-(1→4)-D-Glc]	statistically significantly prevent the DON induced reduction in TEER and increase in LYF	446.4 (8.302)^∧ ng/ml (cm^2xh)	42.79 (0.844)^∧∧ % of initial value	slower and lower acidification	significantly (p<0.05) increased level	increased level	3.361 (1.867)	2.586 (0.281)	–
Gal (beta 1-3)-Gal (beta 1-4)-Glc [3′-GL]	prevented the DON-induced loss of epithelial barrier integrity	–	–	–	–	did not have a statistically significant effect	–	1.164 (0.212)	high
